Our source for the Activity, Inhibition and inhibition values is ChEMBL document CHEMBL1142347, “Synthesis and antibiotic activity of a small molecules library of 1,2,3-triazole derivatives” (2008).

Common to all, as to format: functional
The test system of experiment [1] is Staphylococcus aureus. As to the kind of experiment: Growth inhibition of Staphylococcus aureus ATCC 25923 at 0.1 mg/ml after 24 hrs. The conditions noted are these: for inhibition at 100 µg/mL: ATCC 25923, 24 h.
Experiment [2] concerns Staphylococcus aureus. As to the kind of experiment: Growth inhibition of Staphylococcus aureus 1199B expressing NorA at 0.1 mg/ml after 24 hrs.
Experiment [3] relates to Staphylococcus aureus. Kind of experiment: Growth inhibition of Staphylococcus aureus RN4220 expressing MsrA at 0.1 mg/ml after 24 hrs. The conditions noted are these: for inhibition at 100 µg/mL: RN4220, 24 h.
Experiment [4] deals with Staphylococcus aureus. Kind of experiment: Growth inhibition of Staphylococcus aureus RN4220 expressing MsrA at 0.1 mg/ml after 24 hrs in presence of 16 mg/L erythromycin.
The test system of experiment [5] is Staphylococcus aureus. Kind of experiment: Growth inhibition of Staphylococcus aureus 1199B expressing NorA at 0.1 mg/ml after 24 hrs in presence of 4 mg/L ciprofloxacin.

Activity calls are given as the source filed them. No cut-off for these calls is given here.

For orientation: Inhibition means the drop in the measured response relative to a control, in per cent. For the compound `C=CCn1cc(C(=O)O)nn1`, the outcome in the experiment with Staphylococcus aureus [1], in the experiment with Staphylococcus aureus [2], in the experiment with Staphylococcus aureus [3] and with Staphylococcus aureus [4] was inactive. The Inhibition with Staphylococcus aureus [5] stood at 6%.

As usually defined, the inhibition is the relative decrease from the control value, in per cent. For the compound `O=[N+]([O-])c1ccc(-n2cc(COc3ccccc3)nn2)cc1`, the figures for the inhibition at 100 µg/mL with Staphylococcus aureus [1], in the experiment with Staphylococcus aureus [2] and in the experiment on Staphylococcus aureus [3] were 27%, 18% and 34%, respectively. Moreover, the Inhibition in the experiment with Staphylococcus aureus [4] worked out at 56%; in the experiment on Staphylococcus aureus [5], 24%.

For the compound `O=C1c2ccccc2C(=O)N1Cc1cn(-c2ccc([N+](=O)[O-])cc2)nn1`, the figures for the inhibition at 100 µg/mL in the experiment with Staphylococcus aureus [1], in the experiment with Staphylococcus aureus [2] and with Staphylococcus aureus [3] were 22%, 35% and 48.1%, respectively. In addition, the Inhibition with Staphylococcus aureus [4] is reported as 72%; with Staphylococcus aureus [5], 38%.

For `O=C1c2ccccc2C(=O)N1Cc1cn(-c2cccnc2)nn1`, the inhibition at 100 µg/mL in the experiment with Staphylococcus aureus [1] is 24%; in the experiment on Staphylococcus aureus [2] it was 22%; in the experiment with Staphylococcus aureus [3] it was 46%. Besides, the values for the Inhibition in the experiment with Staphylococcus aureus [4] and in the experiment on Staphylococcus aureus [5] were 71% and 26.6%, respectively.

Consider `CCOC(OCC)c1cn(-c2cccnc2)nn1`, for which the result in the experiment on Staphylococcus aureus [1], in the experiment on Staphylococcus aureus [3], with Staphylococcus aureus [4] and in the experiment with Staphylococcus aureus [5] was inactive. Besides, 100 µg/mL produced 6.3% inhibition in the experiment on Staphylococcus aureus [2].

With `CCOC(OCC)c1cn(-c2ccc(OC)cc2)nn1`, the outcome with Staphylococcus aureus [1] was inactive. The inhibition at 100 µg/mL was found to be 11% in the experiment with Staphylococcus aureus [2] and 9% in the experiment on Staphylococcus aureus [3]. For the same compound, the Inhibition in the experiment with Staphylococcus aureus [4] is reported as 25%; in the experiment with Staphylococcus aureus [5], 71%.

With `COc1ccc(-n2cc(COc3ccccc3)nn2)cc1`, the inhibition at 100 µg/mL is 10% with Staphylococcus aureus [1], 11% in the experiment with Staphylococcus aureus [2] and 21% with Staphylococcus aureus [3]. The Inhibition came to 39% in the experiment with Staphylococcus aureus [4] and 16% in the experiment with Staphylococcus aureus [5].

Take `COc1ccc(-n2cc(C(=O)O)nn2)cc1`: in the experiment on Staphylococcus aureus [1], the result was inactive. Further, the inhibition at 100 µg/mL in the experiment on Staphylococcus aureus [2] came out at 21%; with Staphylococcus aureus [3], 38%. Further, the Inhibition is 45.8% in the experiment with Staphylococcus aureus [4] and 24% in the experiment on Staphylococcus aureus [5].

Turning to `CCOC(OCC)c1cn(Cc2ccccc2)nn1`, the values for the inhibition at 100 µg/mL in the experiment on Staphylococcus aureus [1], in the experiment with Staphylococcus aureus [2] and with Staphylococcus aureus [3] were 32%, 6% and 19%, respectively. Besides, the Inhibition was 28% in the experiment with Staphylococcus aureus [4] and 8% in the experiment on Staphylococcus aureus [5].

Consider `COc1ccc(-n2cc(CN3C(=O)c4ccccc4C3=O)nn2)cc1`, for which the inhibition at 100 µg/mL in the experiment with Staphylococcus aureus [1] was determined as 24%; in the experiment with Staphylococcus aureus [2], 15%; in the experiment with Staphylococcus aureus [3] it was 24.1%. The Inhibition with Staphylococcus aureus [4] was 48%; in the experiment with Staphylococcus aureus [5] it was 18%.

Turning to `c1ccc(OCc2cn(-c3ccccc3)nn2)cc1`, the inhibition at 100 µg/mL in the experiment with Staphylococcus aureus [1] is 31%; in the experiment on Staphylococcus aureus [2], 11%; in the experiment with Staphylococcus aureus [3], 11%. The figures for the Inhibition in the experiment with Staphylococcus aureus [4] and in the experiment with Staphylococcus aureus [5] were 41% and 26%, respectively.

Consider `OCc1cn(Cc2ccccc2)nn1`, for which the results for the inhibition at 100 µg/mL in the experiment with Staphylococcus aureus [1] and in the experiment on Staphylococcus aureus [2] were 6.1% and 6%, respectively. For the same compound, the outcome in the experiment on Staphylococcus aureus [3], with Staphylococcus aureus [4] and in the experiment on Staphylococcus aureus [5] was inactive.

For `C=CCn1cc(CN2C(=O)c3ccccc3C2=O)nn1`, the result with Staphylococcus aureus [1] was inactive. Moreover, the inhibition at 100 µg/mL is 18% with Staphylococcus aureus [2] and 33% in the experiment with Staphylococcus aureus [3]. The Inhibition in the experiment on Staphylococcus aureus [4] came to 36%; in the experiment on Staphylococcus aureus [5] it was 23%.

On to `CCOC(OCC)c1cn(-c2ccccc2)nn1`, for which the outcome in the experiment with Staphylococcus aureus [1], with Staphylococcus aureus [2], in the experiment on Staphylococcus aureus [3], in the experiment with Staphylococcus aureus [4] and in the experiment with Staphylococcus aureus [5] was inactive.

In the case of `COC(=O)c1cn(-c2cccnc2)nn1`, the inhibition at 100 µg/mL in the experiment on Staphylococcus aureus [1] came to 16%; in the experiment on Staphylococcus aureus [3], 11%. Besides, the result in the experiment with Staphylococcus aureus [2] and in the experiment with Staphylococcus aureus [5] was inactive. In addition, in the experiment with Staphylococcus aureus [4], the Inhibition was determined as 78.3%.

In the case of `COC(=O)c1cn(Cc2ccccc2)nn1`, the values for the inhibition at 100 µg/mL with Staphylococcus aureus [1], in the experiment with Staphylococcus aureus [2] and in the experiment on Staphylococcus aureus [3] were 25%, 15% and 15%, respectively. In addition, the Inhibition is listed as 33% with Staphylococcus aureus [4] and 18% in the experiment on Staphylococcus aureus [5].

`C=CCn1cc(C(OCC)OCC)nn1`: the inhibition at 100 µg/mL amounted to 17% in the experiment on Staphylococcus aureus [1] and 6% in the experiment on Staphylococcus aureus [3]. Further, the outcome with Staphylococcus aureus [2] and in the experiment on Staphylococcus aureus [5] was inactive. The Inhibition in the experiment on Staphylococcus aureus [4] amounted to 40%.

For the compound `C=CCn1cc(COc2ccccc2)nn1`, the inhibition at 100 µg/mL in the experiment with Staphylococcus aureus [1] was 16%; in the experiment on Staphylococcus aureus [2], 15%; in the experiment on Staphylococcus aureus [3], 32%. Moreover, the results for the Inhibition with Staphylococcus aureus [4] and in the experiment with Staphylococcus aureus [5] were 38% and 20%, respectively.

On to `CCCCCCCCn1cc(CN2C(=O)c3ccccc3C2=O)nn1`, for which the result in the experiment with Staphylococcus aureus [1] was inactive. Besides, the inhibition at 100 µg/mL in the experiment with Staphylococcus aureus [2] is 27.4%; in the experiment on Staphylococcus aureus [3] it was 40%. Besides, the results for the Inhibition with Staphylococcus aureus [4] and in the experiment on Staphylococcus aureus [5] were 24% and 25%, respectively.

In the case of `O=C(O)c1cn(-c2cccnc2)nn1`, the inhibition at 100 µg/mL in the experiment on Staphylococcus aureus [1] was 14%; in the experiment on Staphylococcus aureus [2], 23%; in the experiment with Staphylococcus aureus [3] it was 52.6%. Besides, the Inhibition with Staphylococcus aureus [4] is reported as 78%; in the experiment on Staphylococcus aureus [5], 24%.

On to `O=C1c2ccccc2C(=O)N1Cc1cn(Cc2ccccc2)nn1`, for which the result in the experiment with Staphylococcus aureus [1] was inactive. For the same compound, the inhibition at 100 µg/mL amounted to 57% in the experiment on Staphylococcus aureus [2] and 30% in the experiment with Staphylococcus aureus [3]. In addition, the Inhibition is 44% in the experiment on Staphylococcus aureus [4] and 36% in the experiment with Staphylococcus aureus [5].

As for `O=C(O)c1cn(-c2ccccc2)nn1`, in the experiment with Staphylococcus aureus [1], the result was inactive. For the same compound, the inhibition at 100 µg/mL came to 18% with Staphylococcus aureus [2] and 54% in the experiment on Staphylococcus aureus [3]. Besides, the figures for the Inhibition in the experiment on Staphylococcus aureus [4] and in the experiment on Staphylococcus aureus [5] were 74.9% and 15%, respectively.

Regarding `CCCCCCCCCCCCn1cc(CN2C(=O)c3ccccc3C2=O)nn1`, the inhibition at 100 µg/mL in the experiment on Staphylococcus aureus [1] was determined as 20%; with Staphylococcus aureus [2] it was 40%; with Staphylococcus aureus [3] it was 43%. For the same compound, the figures for the Inhibition in the experiment with Staphylococcus aureus [4] and in the experiment on Staphylococcus aureus [5] were 65% and 45%, respectively.

Turning to `O=C1c2ccccc2C(=O)N1Cc1cn(-c2ccccc2)nn1`, the outcome in the experiment on Staphylococcus aureus [1] was inactive. In addition, the inhibition at 100 µg/mL with Staphylococcus aureus [2] was found to be 17%; in the experiment with Staphylococcus aureus [3], 24%. In addition, the Inhibition in the experiment with Staphylococcus aureus [4] was found to be 41%; with Staphylococcus aureus [5], 17%.

With `C=CCn1cc(C(=O)OC)nn1`, the values for the inhibition at 100 µg/mL with Staphylococcus aureus [1], with Staphylococcus aureus [2] and in the experiment on Staphylococcus aureus [3] were 21%, 16% and 44%, respectively. Moreover, the values for the Inhibition in the experiment on Staphylococcus aureus [4] and in the experiment with Staphylococcus aureus [5] were 71% and 16%, respectively.

For `c1ccc(OCc2cn(-c3cccnc3)nn2)cc1`, the inhibition at 100 µg/mL with Staphylococcus aureus [1] is 22%; in the experiment on Staphylococcus aureus [2] it was 22%; in the experiment with Staphylococcus aureus [3], 30%. The results for the Inhibition in the experiment on Staphylococcus aureus [4] and in the experiment with Staphylococcus aureus [5] were 58% and 56%, respectively.

With `O=C(O)c1cn(Cc2ccccc2)nn1`, the outcome in the experiment with Staphylococcus aureus [1] was inactive. Also, the inhibition at 100 µg/mL with Staphylococcus aureus [2] was found to be 8%; with Staphylococcus aureus [3] it was 31%. Besides, the Inhibition in the experiment on Staphylococcus aureus [4] was 22%; in the experiment with Staphylococcus aureus [5], 9%.

As to `c1ccc(Cn2cc(COc3ccccc3)nn2)cc1`, the values for the inhibition at 100 µg/mL with Staphylococcus aureus [1], with Staphylococcus aureus [2] and in the experiment with Staphylococcus aureus [3] were 12%, 21% and 32.7%, respectively. Also, the Inhibition with Staphylococcus aureus [4] is 43%; with Staphylococcus aureus [5], 20%.
